Results: patent US9375477B2 (GALDERMA RESEARCH & DEVELOPMENT, priority 2012, dated 2016)

Test: In vitro cutaneous penetration on human skin (Franz cell)
Type: in vitro ADME
Conditions: 16 hours after application; the 3 formulae evaluated (Examples 2 and 9, reference gel)
Protocol: The cutaneous penetration studies performed on the formulations of the invention containing an active principle of the retinoid class were performed in vitro on whole human abdominal skin after excision, this skin being mounted on a Franz cell.
After topical application of a given amount of the formulation to the surface of the skin, the penetration of the active principle is measured 16 hours after application.
The amount of active principle of the retinoid class is measured in the various skin compartments: stratum corneum, epidermis, dermis and also in the receiving liquid.
The bioanalysis was carried out by positive electrospray ionization tandem mass spectrometry, and using a Xevo machine (Waters).
The quantification limit for compound A is 0.5 ng/mL. The LC/MS/MS conditions developed made it possible to detect up to 0.1% of the dose applied in each of the compartments (dose not absorbed, stratum, epidermis, dermis and receiving liquid). The appropriateness, accuracy and repeatability of the method were checked in each of the matrices, and made it possible to validate the bioanalysis method.
In this type of “single point” study, the parameters retained are: • a. the distribution profile in the various compartments (qualitative data) • b. the penetration into the epidermis+dermis compartment (numerical data)

CC(C)(C)c1cc(-c2cc(-c3ccc(C(=O)O)cc3)ccc2OCCO)ccc1N1CCCC1 [Compound A, 3″-tert-butyl-4′-(2-hydroxyethoxy)-4″-pyrrolidin-1-yl-[1,1′; 3′,1″]-terphenyl-4-carboxylic acid]
Compound A in the receiving liquid: not detected
